Key:
[1] = PK of total paclitaxel in plasma, B16/F10 tumor-bearing mice (Example 3); type: in vivo, C57BL/6N mice; conditions: NBP 3, 10, 30 mg/kg bid i.p. with ab-PTX 25 mg/kg; Cmax, AUC0-t and other indexes
Method: Administration volume: 10 mL/kg. […] The administration was performed for 15 consecutive days. The administration volume was 10 mL/kg. Before the administration of the last dose of ab-PTX (0 h), and 5 min, 0.5 […] after the administration, blood was sampled (as detailed in Table 5), anticoagulated with heparin, and centrifuged to separate plasma, which was stored at -80° C. for later use. The total amount of paclitaxel in the plasma was determined by protein precipitation-LC/MS/MS.

JIMT-1 xenograft tumor = assay: Influence of NBP on antitumor efficacy of ab-PTX against JIMT-1 xenograft tumor (Example 4); type: in vivo, Nu/Nu mice
Method: After in vitro resuscitation and passage of JIMT-1 cells to a sufficient amount, the cells were counted by a microscope, and diluted with a serum-free medium to adjust the cell count to about 1×10^8 cells/mL. The cell suspension was kept in an ice-water bath. […] Monotherapy group of ab-PTX: intravenous injection of ab-PTX at 15 mg/kg once every week, qw (on days 0, 7, 14, 21, and 28). Administration period: 28 days. Administration volume: 10 mL/kg. Monotherapy group of NBP: […] The administration volume was 10 mL/kg. […] The administration period was 28 days. The administration volume was 10 mL/kg. The solvent group was given normal saline at the same frequency and with the same method as ab-PTX, and was given vegetable oil at the same frequency and with the same method as NBP. […] Animals were weighed at set time once per day after the commencement of administration. At the end of the experiment, after the animals were euthanized by CO2 asphyxiation, the tumors were excised and weighed.

A375 = assay: In vitro tumor cell proliferation, MTT (Example 5); type: cell-based; conditions: Homo sapiens, A-375, 30 μM NBP alone, 72 h, read-out: Inhibition rate
Method: (§1) This experiment includes a monotherapy group of ab-PTX, a combined therapy group (ab-PTX/NBP), and an NBP group. Different drug concentration gradients were set for each group.
(§2) ab-PTX/NBP group: the final concentration of NBP was 30 μM, and the concentration gradient of ab-PTX was the same as that of the monotherapy group.
(§3) Monotherapy group of NBP: NBP was 2× serially diluted from an initial concentration of 480 μM to 8 concentrations: 480, 240, 120, 60, 30, 15, 7.5, and 3.75 μM, respectively.
(§4) The action time of the drug was 72 h.
(§5) 24 h after adherence, 100 μL of the culture solution containing different concentration gradients of ab-PTX was added to each well of the monotherapy group of ab-PTX; 100 μL of the culture solution containing different concentration gradients of ab-PTX and 30 μM NBP was added to each well of the combined therapy group of ab-PTX/NBP; 100 μL of the culture solution containing different concentration gradients of NBP was added to each well of the monotherapy group of NBP; 3 repeated wells were provided for each concentration of each drug, and the blank wells (only culture medium was present) and the normal wells (drug concentration was 0) were provided.
(§6) The experiment was repeated three times, and the IC50 value was expressed as the mean±SD of the results of the 3 experiments.

A549 = assay: In vitro tumor cell proliferation, MTT (Example 5); type: cell-based; conditions: Homo sapiens, 30 μM NBP alone, 72 h, read-out: Inhibition rate
Method: as §1, §2, §3, §4, §5, §6

HT29 [2] = assay: In vitro tumor cell proliferation, MTT (Example 5); type: cell-based; conditions: Homo sapiens, HT-29, 30 μM NBP alone, 72 h, read-out: Inhibition rate
Method: as §1, §2, §3, §4, §5, §6

JIMT-1 = assay: In vitro tumor cell proliferation, MTT (Example 5); type: cell-based; conditions: Homo sapiens, 30 μM NBP alone, 72 h, read-out: Inhibition rate
Method: as §1, §2, §3, §4, §5, §6

MDA-MB-231 = assay: In vitro tumor cell proliferation, MTT (Example 5); type: cell-based; conditions: Homo sapiens, 30 μM NBP alone, 72 h, read-out: Inhibition rate
Method: as §1, §2, §3, §4, §5, §6

SK-OV-3 = assay: In vitro tumor cell proliferation, MTT (Example 5); type: cell-based; conditions: Homo sapiens, 30 μM NBP alone, 72 h, read-out: Inhibition rate
Method: as §1, §2, §3, §4, §5, §6

[3] = test system: MDA-MB-231, JIMT-1, SK-OV-3, HT29, A549, A375; assay: In vitro proliferation of 6 tumor cell strains, summary statements (Example 5); type: cell-based, Human; conditions: NBP alone; 6 cell strains
Method: as §1, §2, §3, §4, §5, §6

MM.1S xenograft tumor = assay: Influence of NBP on in vivo anti-tumor efficacy of Bortezomib, MM.1S xenograft (Example 8); set-up: species or system Nu/Nu mice
Method: After in vitro resuscitation and passage of MM.1S cells to a sufficient amount, the cells were counted by a microscope, and diluted with a serum-free medium to adjust the cell count to about 1×10^8 cells/mL. The cell suspension was kept in an ice-water bath. The MM.1S cell suspension was extracted by a sterile syringe and inoculated into the subcutaneous tissue of the forelimb axilla of the Nu/Nu mice. […] Monotherapy group of Palbociclib: intragastric administration at 70 mg/kg, qd (the administration was commenced on day 0); […] The solvent group was given the solvent at the same frequency and with the same administration method as Bortezomib and NBP. The administration period was 16 days, and the administration volume was 10 mL/kg. […] Animals were weighed at set time once per day after the commencement of administration. After animals were grouped, the long diameter and the short diameter of the tumor were measured twice every week. […] V=1⁄2×A×B^2 […] (4) Tumor growth inhibition rate: Note: V: tumor volume; A: tumor length; B: tumor width; RTV: relative tumor volume; TVnd: tumor volume on day n; TV0d: tumor volume on day 0; […]: mean relative tumor volume on day n; TVXn: mean tumor volume of the therapy group on day n; TVX0: mean tumor volume of the therapy group on day 0; TVMn: mean tumor volume of the solvent group on day n; and TVM0: mean tumor volume of the solvent group on day 0 At the end of the experiment, after the animals were euthanized by CO2 asphyxiation, the tumors were excised and weighed.

HT29 [4] = assay: In vitro tumor cell proliferation, MTT (Example 7); conditions: Homo sapiens, HT-29, 72 h
Method: This experiment includes a monotherapy group of Bortezomib, a combined therapy group (Bortezomib/NBP), and a monotherapy group of NBP. Different drug concentration gradients were set for each group.
Monotherapy group of Bortezomib: (1) MM.1S, Jeko-1, and HT29 cells: Bortezomib was 1.5× serially diluted from an initial concentration of 20 nM to 8 concentrations: 20, 13.33, 8.89, 5.93, 3.95, 2.63, 1.76, and 1.17 nM, respectively; (2) A549 cells: Bortezomib was 2×serially diluted from an initial concentration of 200 nM to 8 concentrations: 200, 100, 50, 25, 12.5, 6.25, 3.13, and 1.56 nM, respectively; and (3) DU145 cells: Bortezomib was 2× serially diluted from an initial concentration of 100 nM to 8 concentrations: 100, 50, 25, 12.5, 6.25, 3.13, 1.56, and 0.78 nM, respectively.
A certain number of conventionally cultured cells in logarithmic growth phase were inoculated in a 96-well plate with 100 μL per well. […] For adherent cells HT29, A549, and DU145, the above drugs were added 24 h after adherence. 3 replicate wells were set for each concentration of each drug, and blank wells (only culture medium was present, and no tumor cells were inoculated) and normal wells (a culture medium inoculated with tumor cells, drug concentration was 0) were set. The drugs functioned for 72 h, then MTT working solution (5 mg/mL) was added at 20 μL per well; after functioning at 37° C. for 4 h, the supernatant was removed, 150 μL of DMSO (analytically pure) was added; the mixture was fully mixed using a microplate oscillator, the plate was wiped clean, and the optical density (OD) at 550 nm was measured using a microplate reader.
The cell growth inhibition rate was computed using the following equation:
Inhibition rate (%)=(OD valuenormal well−OD valueadministration well)/(OD valuenormal well−OD valueblank well)×100%
Based on the inhibition rate of each concentration, the median inhibitory concentration IC50 of the drug was computed using SPSS19.0.

[5] = day 14, Bor 0.5 mg/kg, Pal 70 mg/kg, NBP 60 mg/kg, alone or combined
[6] = day 14, Bor 0.5 mg/kg, Pal 70 mg/kg, NBP 60 mg/kg, alone or combined, mean, n=6

CCCCC1OC(=O)c2ccccc21 (centres unmarked) [NBP, 3-n-butylphthalide]
influence of NBP on the PK behavior of ab-PTX in mice [1]: did not affect | Inhibition rate (tumor weight) (JIMT-1 xenograft tumor; NBP 60 mg/kg bid gavage alone): 4.0% | Tumor weight (JIMT-1 xenograft tumor; NBP 60 mg/kg bid gavage alone, mean ± SD, n=8): 0.9570 ± 0.2529 g | tumor growth (JIMT-1 xenograft tumor; ab-PTX 15 mg/kg qw i.v., NBP 60 mg/kg bid gavage, compared with the solvent group): not obviously affected | body weights of the mice (JIMT-1 xenograft tumor; ab-PTX 15 mg/kg qw i.v., NBP 6, 20, 60 mg/kg bid gavage, 28 days): no significant difference | inhibition at 30 µM (A375): 10.9 ± 0.57% | inhibition at 30 µM (A549): 5.12 ± 7.36% | inhibition at 30 µM (HT29 [2]): 10.1 ± 7.94% | inhibition at 30 µM (JIMT-1): 7.39 ± 13.2% | inhibition at 30 µM (MDA-MB-231): 3.43 ± 3.95% | inhibition at 30 µM (SK-OV-3): 12.4 ± 7.41% | inhibitory effect on in vitro proliferation [3]: did not have obvious inhibitory effect | influence of NBP on the tumor inhibition efficacy of Bortezomib (MM.1S xenograft tumor; NBP/Bortezomib 60/0.5 mg/kg compared with monotherapy group of Bortezomib, end of experiment): did not have obvious negative influence | influence of NBP on the antitumor efficacy of combined therapy of Bortezomib/Palbociclib (MM.1S xenograft tumor; NBP/Bortezomib/Palbociclib compared with Bortezomib/Palbociclib, end of experiment): did not have obvious negative influence | body weights of the mice (MM.1S xenograft tumor; between groups, P>0.05): no significant difference | Body weight (MM.1S xenograft tumor; day 14, Bor 0.5 mg/kg i.p. biw, Pal 70 mg/kg qd i.g., NBP 60 mg/kg bid gavage, alone or combined, mean, n=6): 24.9 g | T/C % (MM.1S xenograft tumor; [5]): 73.8% | TGI % (MM.1S xenograft tumor; [5]): 25.8% | RTV (MM.1S xenograft tumor; [6]): 7.2 | TV (MM.1S xenograft tumor; [6]): 938.1 mm^3 | Tumor weight inhibition rate (MM.1S xenograft tumor; end of experiment, Bor 0.5 mg/kg, Pal 70 mg/kg, NBP 60 mg/kg, alone or combined): 36.9% | Tumor weight (MM.1S xenograft tumor; end of experiment, Bor 0.5 mg/kg, Pal 70 mg/kg, NBP 60 mg/kg, alone or combined, mean, n=6, in g (unit assumed)): 1.040 | inhibition at 30 µM (HT29 [4]; read-out: Inhibition rate, First dose): 9.98% | inhibition at 30 µM (HT29 [4]; read-out: Inhibition rate, Mean ± SD): 10.7 ± 2.79% | inhibition at 30 µM (HT29 [4]; read-out: Inhibition rate, Second dose): 8.27% | inhibition at 30 µM (HT29 [4]; read-out: Inhibition rate, Third dose): 13.7%

From patent US20230144023A1, “USE OF BUTYLPHTHALIDE AND DERIVATIVE THEREOF” (CSPC NBP PHARMACEUTICAL CO., LTD, priority 2020, published 2023)
